The values below come from patent US10428081B2, “EGFR inhibitor, preparation method and use thereof” (Shanghai Hansoh Biomedical Co., Ltd., priority 2014, dated 2019).

Molecules are shown by their SMILES.

For test [1], the system named is A431 cells. Kind of test: Inhibition of A431 cell proliferation (CellTiter-Glo). Type of test: cell-based. The following applies: Homo sapiens, A-431, 72 h, read-out: EGFR IC50 (nM) A431. The procedure:
4. Experiment on the Inhibition of A431 Cell Proliferation
In this experiment, the inhibitory effect of the compounds on A431 cell proliferation was tested by a CellTiter-Glo method, and the half maximal inhibitory concentration (IC50) of the compounds on the activity of cell proliferation was determined.
The culture plate was incubated in the incubator for 16 to 24 hours (37° C., 5% CO2).
2) Different concentrations of the test compound in a gradient dilution were added to the cells in the culture plate. The culture plate was incubated in an incubator for 72 hours (37° C., 5% CO2).
3) 50 to 100 μL of CellTiter-Glo reagent was added to each well. Then the culture plate was shaken for 10 minutes, and left to stand at room temperature for 10 minutes.
4) The chemiluminescence signal values of each plate were determined by a microplate reader.
5) The inhibition rates were calculated according to the chemiluminescence signal values. 6) The IC50 of the compound was obtained by curve fitting according to the inhibition rates at different concentrations.
A general note: In ATP-based viability assays light output follows the ATP content of the culture.

Test [2] has as its system NCI-H1975 cells. Put plainly: Inhibition of NCI-H1975 cell proliferation (CellTiter-Glo). Type of test: cell-based. The following applies: for IC50: Homo sapiens, NCI-H1975, 72 h, NCI-H1975 cell proliferation, 72 hours, CellTiter-Glo, read-out: EGFR IC50 (nM) H1975; for Selectivity of wild-type/mutant-type: ratio A431 IC50 / H1975 IC50, cells.
Test [3] concerns the target exon 20 T790M mutant-type EGFR enzyme (Homo sapiens, UniProt P00533, T790M). Kind of test: Enzymologic experiment of T790M mutant-type EGFR (TR-FRET). The format is biochemical. The following applies: for IC50: T790M EGFR enzyme, TR-FRET, ATP 1 to 10 uM; for Selectivity of wild-type/mutant-type: ratio WT IC50 / T790M IC50, enzyme. The procedure, abridged:
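Compound dilutions preincubated 10 min at room temperature; reaction ended with EDTA, then labeled antibody added for 1 h at room temperature. Inhibition rates derived from TR-FRET fluorescence signal, and IC50 obtained by curve fitting across concentrations.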
Background: TR-FRET usually uses a lanthanide donor and a delayed reading to cut background.

In test [4] the target is wild-type EGFR enzyme (Homo sapiens, UniProt P00533). Put plainly: Enzymologic experiment of wild-type (WT) EGFR (TR-FRET). The following applies: ATP 0.1 to 5 uM. Type of test: biochemical. The procedure, abridged: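 Wild-type EGFR (0.1 to 1 nM final) preincubated with serially diluted compound for 10 minutes at room temperature; reaction stopped with EDTA, then labelled antibody added for 1 hour at room temperature. TR-FRET signal converted to inhibition rates; IC50 from curve fitting across concentrations.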
Sequence of wild-type EGFR enzyme (P00533 25-1210): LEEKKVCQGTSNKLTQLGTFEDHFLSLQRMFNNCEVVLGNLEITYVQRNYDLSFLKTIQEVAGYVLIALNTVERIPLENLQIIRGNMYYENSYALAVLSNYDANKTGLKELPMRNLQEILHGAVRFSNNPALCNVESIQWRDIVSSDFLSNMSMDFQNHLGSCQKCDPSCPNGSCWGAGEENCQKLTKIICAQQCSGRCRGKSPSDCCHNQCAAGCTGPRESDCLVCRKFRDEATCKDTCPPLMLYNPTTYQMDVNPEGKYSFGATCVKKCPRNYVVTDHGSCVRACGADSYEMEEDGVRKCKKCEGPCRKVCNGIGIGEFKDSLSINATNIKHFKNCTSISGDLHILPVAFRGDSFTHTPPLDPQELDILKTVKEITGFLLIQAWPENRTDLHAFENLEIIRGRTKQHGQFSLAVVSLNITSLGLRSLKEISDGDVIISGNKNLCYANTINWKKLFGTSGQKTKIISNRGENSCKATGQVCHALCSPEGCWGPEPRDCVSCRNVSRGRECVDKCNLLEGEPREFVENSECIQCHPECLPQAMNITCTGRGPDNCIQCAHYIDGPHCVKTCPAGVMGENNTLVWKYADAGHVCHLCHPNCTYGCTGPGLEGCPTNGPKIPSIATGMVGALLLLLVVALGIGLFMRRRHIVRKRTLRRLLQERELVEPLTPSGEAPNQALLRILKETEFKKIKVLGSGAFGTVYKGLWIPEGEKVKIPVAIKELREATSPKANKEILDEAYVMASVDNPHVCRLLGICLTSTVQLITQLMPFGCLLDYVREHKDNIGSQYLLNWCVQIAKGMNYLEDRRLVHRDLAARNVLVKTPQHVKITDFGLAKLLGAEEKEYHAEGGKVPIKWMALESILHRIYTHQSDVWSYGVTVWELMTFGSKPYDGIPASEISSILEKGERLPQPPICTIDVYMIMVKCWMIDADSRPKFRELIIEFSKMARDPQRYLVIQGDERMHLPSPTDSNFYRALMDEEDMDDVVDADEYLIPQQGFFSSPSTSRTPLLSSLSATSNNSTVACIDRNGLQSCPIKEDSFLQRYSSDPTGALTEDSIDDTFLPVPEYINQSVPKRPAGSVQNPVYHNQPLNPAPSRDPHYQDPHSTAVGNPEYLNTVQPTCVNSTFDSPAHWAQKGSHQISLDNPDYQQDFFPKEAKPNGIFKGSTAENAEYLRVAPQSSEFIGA

Sequence of exon 20 T790M mutant-type EGFR enzyme (P00533 25-1210 T790M): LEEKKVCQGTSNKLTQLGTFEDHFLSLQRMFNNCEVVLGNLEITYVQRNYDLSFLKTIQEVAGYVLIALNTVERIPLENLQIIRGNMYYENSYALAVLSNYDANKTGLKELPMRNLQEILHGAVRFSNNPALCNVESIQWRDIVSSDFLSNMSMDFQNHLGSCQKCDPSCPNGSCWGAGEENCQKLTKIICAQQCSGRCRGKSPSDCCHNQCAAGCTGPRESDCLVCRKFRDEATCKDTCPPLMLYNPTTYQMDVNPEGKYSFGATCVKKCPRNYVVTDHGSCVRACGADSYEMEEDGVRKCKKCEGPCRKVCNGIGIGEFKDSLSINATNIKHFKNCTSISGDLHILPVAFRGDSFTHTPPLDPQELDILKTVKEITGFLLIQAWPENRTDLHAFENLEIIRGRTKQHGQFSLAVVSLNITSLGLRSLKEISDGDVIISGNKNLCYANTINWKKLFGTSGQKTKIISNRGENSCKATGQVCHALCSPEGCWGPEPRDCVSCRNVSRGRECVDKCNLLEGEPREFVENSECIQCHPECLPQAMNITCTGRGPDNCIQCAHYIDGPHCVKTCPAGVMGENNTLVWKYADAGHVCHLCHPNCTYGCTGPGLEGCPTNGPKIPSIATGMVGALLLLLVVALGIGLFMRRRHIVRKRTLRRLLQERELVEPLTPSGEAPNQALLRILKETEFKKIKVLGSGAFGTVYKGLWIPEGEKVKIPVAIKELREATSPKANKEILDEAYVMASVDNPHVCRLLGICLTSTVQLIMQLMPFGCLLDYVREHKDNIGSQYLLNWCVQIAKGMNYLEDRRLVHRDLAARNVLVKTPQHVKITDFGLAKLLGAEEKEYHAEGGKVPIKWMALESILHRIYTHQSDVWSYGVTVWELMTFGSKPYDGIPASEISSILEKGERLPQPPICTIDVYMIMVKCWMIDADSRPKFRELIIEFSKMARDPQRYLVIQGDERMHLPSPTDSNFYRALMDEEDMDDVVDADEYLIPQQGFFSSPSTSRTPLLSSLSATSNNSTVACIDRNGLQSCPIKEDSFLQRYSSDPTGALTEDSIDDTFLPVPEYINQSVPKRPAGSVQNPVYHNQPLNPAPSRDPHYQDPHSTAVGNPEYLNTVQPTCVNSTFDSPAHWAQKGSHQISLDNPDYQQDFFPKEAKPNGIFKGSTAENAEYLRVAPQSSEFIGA

The IC50 is the point on the concentration scale where inhibition reaches its midpoint. `C=CC(=O)Nc1cc(Nc2nccc(-c3cn(S(=O)(=O)N(C)C)c4ccccc34)n2)c(OC)cc1N(C)CCN1CCCC1` [Example 142, N-(5-((4-(1-(N,N-dimethylsulfamoyl)-1H-indol-3-yl)pyrimidin-2-yl)amino)-4-methoxy-2-(methyl(2-(pyrrolidin-1-yl)ethyl)amino)phenyl)acrylamide]: the IC50 in test [1] is 119 nM; in test [2], 3.16 nM; in test [3], 0.23 nM; in test [4], 1.8 nM. Moreover, the Selectivity of wild-type/mutant-type in test [2] is given as 37.53; in test [3], 7.83.
For the compound `C=CC(=O)Nc1cc(Nc2ncc(C(F)(F)F)c(-c3cn(C)c4cc(OC)ccc34)n2)c(OC)cc1N(C)CCN(C)C` [Example 99, N-(2-((2-(dimethylamino)ethyl)(methyl)amino)-4-methoxy-5-((4-(6-methoxy-1-methyl-1H-indol-3-yl)-5-(trifluoromethyl)pyrimidin-2-yl)amino)phenyl)acrylamide], the IC50 in test [1] was 36.5 nM; in test [2] it was 2.08 nM; in test [3], 0.21 nM; in test [4], 5.01 nM. Moreover, the figures for the Selectivity of wild-type/mutant-type in test [2] and in test [3] were 17.57 and 23.86, respectively.
For the compound `C#CCn1cc(-c2ccnc(Nc3cc(NC(=O)C=C)c(N(C)CCN(C)C)cc3OC)n2)c2ccccc21` [Example 140, N-(2-((2-(dimethylamino)ethyl)(methyl)amino)-4-methoxy-5-((4-(1-(prop-2-yn-1-yl)-1H-indol-3-yl)pyrimidin-2-yl)amino)phenyl)acrylamide], the 50% inhibitory concentration (IC50) in test [1] is 576 nM; in test [2] it was 2.66 nM; in test [3], 0.58 nM; in test [4], 8.56 nM. Further, the Selectivity of wild-type/mutant-type is recorded as 216.69 in test [2] and 14.76 in test [3].
On to `C=CC(=O)Nc1cc(Nc2nccc(-c3c[nH]c4c(OC)cccc34)n2)c(OC)cc1N(C)CCN(C)C` [Example 94, N-(2-((2-(dimethylamino)ethyl)(methyl)amino)-4-methoxy-5-((4-(7-methoxy-1H-indol-3-yl)pyrimidin-2-yl)amino)phenyl)acrylamide], for which the IC50 amounted to 38.8 nM in test [1], 3.91 nM in test [2], 0.71 nM in test [3] and 1.26 nM in test [4]. Besides, the Selectivity of wild-type/mutant-type in test [2] was 9.93; in test [3] it was 1.771.
Take `C=CC(=O)Nc1cc(Nc2ncc(Cl)c(-n3ncc4cc(OC)ccc43)n2)c(OC)cc1N(C)CCN(C)C` [Example 48, N-(5-((5-chloro-4-(5-methoxy-1H-indazol-1-yl)pyrimidin-2-yl)amino)-2-((2-(dimethylamino)ethyl)(methyl)amino)-4-methoxyphenyl)acrylamide]: the IC50 worked out at 102 nM in test [1], 1.75 nM in test [2], 0.24 nM in test [3] and 2.52 nM in test [4]. Moreover, the results for the Selectivity of wild-type/mutant-type in test [2] and in test [3] were 58.06 and 10.5, respectively.
For the compound `C=CC(=O)Nc1cc(Nc2nccc(-c3cn(C)c4ccc(OC)cc34)n2)c(OC)cc1N(C)CCN(C)C` [Example 24, N-(2-((2-(dimethylamino)ethyl)(methyl)amino)-4-methoxy-5-((4-(5-methoxy-1-methyl-1H-indol-3-yl)pyrimidin-2-yl)amino)phenyl)acrylamide], the IC50 is 453 nM in test [1], 8.62 nM in test [2], 3.53 nM in test [3] and 4.02 nM in test [4]. The Selectivity of wild-type/mutant-type in test [2] is on record as 52.59; in test [3] it was 1.1.
With `C=CC(=O)Nc1cc(Nc2ncc(Cl)c(-n3cnc4cc(OC)ccc43)n2)c(OC)cc1N(C)CCN(C)C` [Example 63, N-(5-((5-chloro-4-(5-methoxy-1H-benzo[d]imidazol-1-yl)pyrimidin-2-yl)amino)-2-((2-(dimethylamino)ethyl)(methyl)amino)-4-methoxyphenyl)acrylamide], the IC50 in test [1] worked out at 71 nM; in test [2], 1.87 nM; in test [3], 0.36 nM; in test [4], 14.9 nM. Further, the Selectivity of wild-type/mutant-type in test [2] worked out at 37.97; in test [3], 41.53.
As to `C=CC(=O)Nc1cc(Nc2nccc(-c3cn(C4CC4)c4ccccc34)n2)c(OC)cc1N(C)CCN1CCCC1` [Example 123, N-(5-((4-(1-cyclopropyl-1H-indol-3-yl)pyrimidin-2-yl)amino)-4-methoxy-2-(methyl(2-(pyrrolidin-1-yl)ethyl)amino)phenyl)acrylamide], the IC50 in test [1] turned out to be 527 nM; in test [2], 14.9 nM; in test [3] it was 1.28 nM; in test [4] it was 27.2 nM. The Selectivity of wild-type/mutant-type worked out at 35.37 in test [2] and 21.23 in test [3].
As for `C=CC(=O)Nc1cc(Nc2nccc(-n3cnc4ccc(OC)cc43)n2)c(OC)cc1N(C)CCN(C)C` [Example 60, N-(2-((2-(dimethylamino)ethyl)(methyl)amino)-4-methoxy-5-((4-(6-methoxy-1H-benzo[d]imidazol-1-yl)pyrimidin-2-yl)amino)phenyl)acrylamide], the IC50 came to 149 nM in test [1], 2.94 nM in test [2], 0.33 nM in test [3] and 2.03 nM in test [4]. For the same compound, the Selectivity of wild-type/mutant-type in test [2] is 50.82; in test [3], 6.16.
On to `C=CC(=O)Nc1cc(Nc2nccc(-c3cn(C)c4ccccc34)n2)c(OC(F)F)cc1N1CCN(C)CC1` [Example 2, N-(4-(difluoromethoxy)-5-((4-(1-methyl-1H-indol-3-yl)pyrimidin-2-yl)amino)-2-(4-methylpiperazine-1-yl)phenyl)acrylamide], for which the IC50 in test [1] amounted to 224 nM; in test [2] it was 1.36 nM; in test [3] it was 9.26 nM; in test [4] it was 143 nM. Further, the Selectivity of wild-type/mutant-type was 164 in test [2] and 15 in test [3].
`C=CC(=O)Nc1cc(Nc2nccc(-c3cn(C)c4cc(C=C)ccc34)n2)c(OC)cc1N(C)CCN(C)C` [Example 96, N-(2-((2-(dimethylamino)ethyl)(methyl)amino)-4-methoxy-5-((4-(1-methyl-6-vinyl-1H-indol-3-yl)pyrimidin-2-yl)amino)phenyl)acrylamide]: the IC50 in test [1] is 324 nM; in test [2], 17.5 nM; in test [3], 1.57 nM; in test [4], 8.9 nM. In addition, the Selectivity of wild-type/mutant-type in test [2] amounted to 18.51; in test [3], 5.67.
With `C=CC(=O)Nc1cc(Nc2nccc(-n3ncc4cc(OC)ccc43)n2)c(OC)cc1N(C)CCN1CCCC1` [Example 137, N-(4-methoxy-5-((4-(5-methoxy-1H-indazol-1-yl)pyrimidin-2-yl)amino)-2-(methyl(2-(pyrrolidin-1-yl)ethyl)amino)phenyl)acrylamide], the IC50 was found to be 406 nM in test [1], 9.52 nM in test [2], 1.03 nM in test [3] and 6.31 nM in test [4]. The Selectivity of wild-type/mutant-type in test [2] stood at 42.70; in test [3], 6.13.
On to `C=CC(=O)Nc1cc(Nc2nccc(-n3ncc4cc(OCC)ccc43)n2)c(OC)cc1N(C)CCN(C)C` [Example 105, N-(2-((2-(dimethylamino)ethyl)(methyl)amino)-5-((4-(5-ethoxy-1H-indazol-1-yl)pyrimidin-2-yl)amino)-4-methoxyphenyl)acrylamide], for which the IC50 in test [1] came to 887 nM; in test [2], 3.12 nM; in test [3] it was 0.26 nM; in test [4], 0.62 nM. Also, the Selectivity of wild-type/mutant-type in test [2] came out at 284.29; in test [3], 2.38.
In the case of `C#CCn1cc(-c2ccnc(Nc3cc(NC(=O)C=C)c(N(C)CCNC)cc3OC)n2)c2ccccc21` [Example 129, N-(4-methoxy-2-(methyl(2-(methylamino)ethyl)amino)-5-((4-(1-(prop-2-yn-1-yl)-1H-indol-3-yl)pyrimidin-2-yl)amino)phenyl)acrylamide], the IC50 was determined as 690 nM in test [1], 6.22 nM in test [2], 1.01 nM in test [3] and 13.7 nM in test [4]. Moreover, the Selectivity of wild-type/mutant-type in test [2] was 110.93; in test [3], 13.58.
